pEC50: −log10 of the molar value. Read-outs that look alike come from different tables or passages of the source.
System: EV71 virus strain Shenzhen/120F1/09
Assay: EV71 in-vitro cytopathic effect (CPE) test
Type: cell-based, RD cells of human rhabdomyoma
Details: RD cells, EV71 100 TCID50, 3 days, CCK8 readout, read-out: EC50 by EC71 CPE test, EV71
Procedure: Test of EV71 In-Vitro Cytopathic Effect (CPE) To test the in-vitro antiviral activity and cytotoxicity of a compound to HFMD virus EV71 by means of cytopathic effect (CPE) test. […] Cell line: RD cells of human rhabdomyoma • 3. Cell culture media: DMEM medium added with 10% serum, Penicillin/Streptomycin and L-[…]×) • 4. […] Cell inoculation: digest off the RD cells from the attached state, then dilute them with culture medium to a density of 80000/ml and inoculate 100 μl into the micro wells the 96-well plate. • 2. Dilution of compound: • Step 1: prepare the dry powder of a compound to test into a 10 mM solution in DMSO. Then dilute the compound by three times to eight concentration points. Dilute the reference compounds with the same method. • Step 2: further dilute the diluted solution of the compound in DMSO with cell culture medium. Add 10 μl DMSO solution for each well into 240 μl culture medium. • 3. Add the diluted compound solution by 50 μl each well into the 96-well plate inoculated with cells (double holes, final concentration of DMSO is 1%). • 4. Dilution of virus: dilute EV71 virus solution by 10000 times to a concentration of 100 TCID50/50 μl/. Add the diluted virus solution by 50 μl each well into the 96-well plate. Prepare another 96-well plate to replace the virus with culture medium and similarly inoculate the cells. Add the compound to test the toxicity of compound on cells. • 5. Cultivate the 96-well plate 3 days at the conditions of 37° C. and 5% CO2. • 6. EC50 and CC50 tests: add the cellular activity test reagent CCK8 into the micro-wells by 20 μl/well. Use ELIASA to read the absorbancy at the wavelength of 450 nm and 630 nm. • 7.

CCn1nnc(-c2ccc(OCCCCCN3CCN(c4ccnc(N)c4)S3(=O)=O)nc2)n1 [Embodiment 74, 4-(5-(5-((5-(2-ethyl-tetrazol-5-yl)-2-pyridinyl)-oxy)-pentyl)-1,1-dioxo-1,2,5-thiadiazolidine-2-yl)-pyridin-2-amine]
pEC50 (Enterovirus A, 72 h): > 7.30

CCn1nnc(-c2ccc(OCCC(C)(C)CCN3CCN(c4ccnc(N)c4)S3(=O)=O)cc2)n1 [Embodiment 76, 4-(5-(5-(4-(2-ethyl-tetrazol-5-yl)-phenoxy)-3,3-dimethyl-pentyl)-1,1-dioxo-1,2,5-thiadiazolidine-2-yl)-pyridin-2-amine]
pEC50 (Enterovirus A, 72 h): > 7.30

(S,E)-2-(2-aminopyridin-4-yl)-5-(5-((1-(ethoxy-imino)-2,3-dihydro-1H-inden-5-yl)-oxy)-3-methylpentyl)-1,2,5-thiadiazolidine-1,1-dioxide and (R,E)-2-(2-aminopyridin-4-yl)-5-(5-((1-(ethoxy-imino)-2,3-dihydro-1H-inden-5-yl)-oxy)-3-methylpentyl)-1,2,5-thiadiazolidine-1,1-dioxide [Embodiment 29]
pEC50: > 7.30

— patent publication US9988361B2, “Anti-enterovirus 71 thiadiazolidine derivative” (JIANGSU KANION PHARMACEUTICAL CO. LTD, priority 2014, dated 2018)
